Laboratory results: PubChem BioAssay (NCI)
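Each compound was tested at five concentrations against cells in 96-well plates for 48 hours. GI50 is the concentration that inhibits growth by half. At the TGI there is no net growth.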

Key:
Test in all cases: growth of human tumour cells (NCI), 48 h
COLO 205 colon = tested on: COLO 205 colon
MCF7 breast = tested on: MCF7 breast
OVCAR-3 ovarian = tested on: OVCAR-3 ovarian
NCI-H460 lung = tested on: NCI-H460 lung
MDA-MB-435 = tested on: MDA-MB-435
SK-MEL-28 melanoma = tested on: SK-MEL-28 melanoma
NCI-H23 lung = tested on: NCI-H23 lung
NCI-H226 lung = tested on: NCI-H226 lung
TK-10 renal = tested on: TK-10 renal
HCC-2998 colon = tested on: HCC-2998 colon
NCI/ADR-RES ovarian = tested on: NCI/ADR-RES ovarian
SF-539 CNS = tested on: SF-539 CNS
OVCAR-8 ovarian = tested on: OVCAR-8 ovarian
SW-620 colon = tested on: SW-620 colon
A549 NSCLC = tested on: A549 NSCLC
T-47D breast = tested on: T-47D breast
UACC-62 melanoma = tested on: UACC-62 melanoma
U251 CNS = tested on: U251 CNS
OVCAR-4 ovarian = tested on: OVCAR-4 ovarian
SK-MEL-5 melanoma = tested on: SK-MEL-5 melanoma
EKVX NSCLC = tested on: EKVX NSCLC
KM12 colon = tested on: KM12 colon
RXF 393 renal = tested on: RXF 393 renal
SF-295 CNS = tested on: SF-295 CNS
HOP-92 NSCLC = tested on: HOP-92 NSCLC
HOP-62 NSCLC = tested on: HOP-62 NSCLC
PC-3 prostate = tested on: PC-3 prostate
LOX IMVI melanoma = tested on: LOX IMVI melanoma
OVCAR-5 ovarian = tested on: OVCAR-5 ovarian

`Cc1nn(-c2ccccc2)c(-n2ccnc2)c1/C=N/Nc1nc(-c2ccc(Cl)c(Cl)c2)cs1` was tested, and the TGI (COLO 205 colon) was greater than 100 µM, the GI50 (MCF7 breast) was 2.17 µM and the TGI (MCF7 breast) was 6.37 µM. The GI50 (OVCAR-3 ovarian) was 1.68 µM, the TGI (OVCAR-3 ovarian) was 3.44 µM and the GI50 (NCI-H460 lung) was 3.04 µM. For the same molecule, the TGI (NCI-H460 lung) was 10.7 µM, the GI50 (MDA-MB-435) was 84.7 µM and the TGI (MDA-MB-435) was greater than 100 µM. It also gave a GI50 (SK-MEL-28 melanoma) of 3.89 µM, a TGI (SK-MEL-28 melanoma) of 19.7 µM and a GI50 (NCI-H23 lung) of 1.94 µM. It also gave a TGI (NCI-H23 lung) of 9.9 µM, a GI50 (NCI-H226 lung) of 1.91 µM and a TGI (NCI-H226 lung) of 10.8 µM. The GI50 (TK-10 renal) was 20.3 µM, the TGI (TK-10 renal) was 63.2 µM and the GI50 (HCC-2998 colon) was 5.1 µM. For the same molecule, the TGI (HCC-2998 colon) was 46.8 µM, the GI50 (NCI/ADR-RES ovarian) was 2.31 µM and the TGI (NCI/ADR-RES ovarian) was 9.02 µM. For the same molecule, the GI50 (SF-539 CNS) was 3.66 µM, the TGI (SF-539 CNS) was 14.2 µM and the GI50 (OVCAR-8 ovarian) was 3.44 µM. The TGI (OVCAR-8 ovarian) was 22.3 µM, the GI50 (SW-620 colon) was 3.36 µM and the TGI (SW-620 colon) was 53.4 µM. For the same molecule, the GI50 (A549 NSCLC) was 2.72 µM, the TGI (A549 NSCLC) was 10 µM and the GI50 (T-47D breast) was 6.65 µM. It also gave a TGI (T-47D breast) greater than 100 µM, a GI50 (UACC-62 melanoma) of 7.6 µM and a TGI (UACC-62 melanoma) of 31.9 µM. The GI50 (U251 CNS) was 4.28 µM, the TGI (U251 CNS) was 20.7 µM and the GI50 (OVCAR-4 ovarian) was 1.48 µM. For the same molecule, the TGI (OVCAR-4 ovarian) was 3.76 µM, the GI50 (SK-MEL-5 melanoma) was 2.54 µM and the TGI (SK-MEL-5 melanoma) was 12.9 µM. It also gave a GI50 (EKVX NSCLC) of 5.7 µM, a TGI (EKVX NSCLC) of 36.5 µM and a GI50 (KM12 colon) of 7.89 µM. It also gave a TGI (KM12 colon) greater than 100 µM, a GI50 (RXF 393 renal) of 2.29 µM and a TGI (RXF 393 renal) of 6.12 µM. It also gave a GI50 (SF-295 CNS) of 5.21 µM, a TGI (SF-295 CNS) of 20.3 µM and a GI50 (HOP-92 NSCLC) of 0.214 µM. For the same molecule, the TGI (HOP-92 NSCLC) was 3.49 µM, the GI50 (HOP-62 NSCLC) was 5.92 µM and the TGI (HOP-62 NSCLC) was 29.7 µM. The GI50 (PC-3 prostate) was 3.02 µM, the TGI (PC-3 prostate) was 18.7 µM and the GI50 (LOX IMVI melanoma) was 3.01 µM. The TGI (LOX IMVI melanoma) was 13.4 µM, the GI50 (OVCAR-5 ovarian) was 14.9 µM and the TGI (OVCAR-5 ovarian) was 57.6 µM.
